This assay relates to Jurkat cells. Nature of the assay: Cytokine secretion by ELISA (Example 31). The format is cell-based. The conditions noted are these: for Cytokine Secretion IL-2 pg/ml Mean of 3 Replicates: PHA-activated cells. On the procedure: In a search for a topical agent that can locally deplete levels of T-cells in the skin, apoptotic compounds were evaluated for their mechanisms of action. The ability that […] induce apoptosis by the same mechanisms was examined by cytokine secretion. […] At the end of the treatment period, the cells were harvested and Caspase-3 induction was determined using a flow-cytometry-based method to quantify the percentage of cells that induced Caspase-3. The level of apoptosis is expressed as “% FITC shift”. Cytokine secretion (IL-2, IL-6, TNF, and IFN-γ) was measured at the same time by ELISA and is expressed in pg/mL.
For orientation: In an ELISA, binding on a coated surface is turned into a signal by an enzyme label.

We go through 1 compound from US20070142317A1, “Topical composition for treatment of skin disorders” (QLT USA, Inc., priority 2003, published 2007).

On to `Nc1ncnc2c1ncn2[C@H]1C[C@H](O)[C@@H](CO)O1` [dAd, 2′-deoxyadenosine], for which the “Cytokine Secretion IL-2 pg/ml Mean of 3 Replicates” value worked out at 17 pg/mL (23 hr, drug 500 μM) and 49 pg/mL (46 hr, drug 500 μM). Under “46 hours, compared to no drug+PHA”, this compound gave an IL-2 inhibition of 61%. In addition, under “Jurkat cells activated by PHA, 46 hours, drug 500 μM”, the IL-2 concentration is 49 pg/mL.
